Data taken from the NIST ThermoML archive (doi:10.1016/j.tca.2013.09.023).
± gives the expanded uncertainty stated by the source.

Legend:
[1] = DTA; for Normal melting temperature: Crystal
[2] = Molar enthalpy of transition or fusion; conditions: DSC

SMILES	Normal melting temperature [1] [°C]	Molar enthalpy of transition or fusion ([2]; Crystal) [kcal/mol]	Triple point temperature ([1]; Crystal 2) [K]	Molar enthalpy of transition or fusion ([2]; Crystal 2) [kcal/mol]	Glass transition temperature ([1]; Glass) [°C]
CCCCn1cc[n+](C)c1.[Br-] [1-butyl-3-methylimidazolium bromide]	78.00 ± 2	6.93 ± 0.239	–	–	–
CCCCn1cc[n+](C)c1.[Cl-] [1-butyl-3-methylimidazolium chloride]	74.00 ± 2	4.3 ± 0.239	303.15 ± 2	0.645 ± 0.143	–
CCCCn1cc[n+](C)c1.[I-] [1-butyl-3-methylimidazolium iodide]	–	–	–	–	-70.00 ± 5
